Results taken from patent publication US20240383846A1, “MERCAPTOACETOPHENONE AMINOHYDRAZONES, THEIR SALTS AND USES THEREOF” (priority 2021, published 2024).
Converted amounts (≈) assume the structure as drawn. Like-named read-outs stand apart in the source and are kept apart here.

Assays:
[1] = system: MRSA USA300; test: MIC by broth microdilution (CLSI) against MRSA USA300; format: cell-based, Staphylococcus aureus; details: for MIC: Staphylococcus aureus, read-out: MRSA USA300 MIC
Source text: (§1) Table 1 summarizes the antibacterial activity of certain compounds, according to the present invention, as calculated by minimum inhibitory concentration (MIC) values against one multidrug resistant gram-positive strain (MRSA USA300), and one multidrug resistant gram-negative (Acinetobacter baumannii AB5075). The later bacterial strain is listed at the top of the WHO's critical priority list for antibiotic development. Preferred compounds, according to the present invention are example compounds of formulas 72, 74, and 75, and, in particular, example compound of formula 75.
(§2) The minimum inhibitory concentration (MIC) of tested compounds and control antibiotics was determined using the broth microdilution method according to the guidelines outlined by the Clinical and Laboratory Standards Institute (CLSI, Methods for Dilution Antimicrobial Susceptibility Tests for Bacteria That Grow Aerobically; Approved Standard. January 2012; Vol. Ninth Edition M07-A9. 32 No. 2.). Bacterial strains were grown aerobically overnight on tryptone soy agar plates at 37° C. Afterwards, a bacterial solution equivalent to 0.5 McFarland standard was prepared and diluted in cation-adjusted Mueller-Hinton broth (CAMHB) to achieve a bacterial concentration of about 5×10^5 CFU/mL and seeded in 96-well plates. Compounds and control drugs were added in the first row of the 96-well plates and serially diluted along the plates. Plates were then, incubated aerobically at 37° C. for 18-20 hours.

[2] = system: A. baumannii AB5075; test: MIC by broth microdilution (CLSI) against A. baumannii AB5075; format: cell-based, Acinetobacter baumannii; details: for MIC: Acinetobacter baumannii
Source text: as §1, §2

[3] = system: MRSA USA300; test: Multi-step resistance experiment, 14 consecutive passages; format: cell-based, Staphylococcus aureus
Procedure: A multi-step resistance experiment was conducted, with example compound of formula 75. Initially, the MICs of heptyl compound and rifampicin, as the control antibiotic, were determined against MRSA USA300 using the broth microdilution method. Then, the strain was subcultured for fourteen consecutive passages over two weeks, with increasing concentrations of the tested agents, to detect the shift in the MIC, if any.
Multi-step resistance testing was conducted as reported earlier (PLOS One, 12 (2017) e0182821). A broth microdilution assay was used to determine the MIC for the MRSA strain USA300 after being exposed for 14 consecutive passages to either the example compound of formula 75, or rifampicin, as a control antibiotic. Briefly, different concentrations of TBT4 and rifampicin were prepared in 10 mL Mueller-Hinton (MH) broth (0.125 to 32 μg/ml and 0.003 to 1024 μg/mL, respectively) and they were inoculated with 10 μL of an overnight culture of S. aureus strain USA300 and then incubated at 37° C., with shaking at 180 rpm, for 24 h. […] Resistance was classified as a greater than four-fold increase in the initial MIC (Antimicrob. Agents Chemother., 55 (2011) 1177-1181).

[4] = system: MRSA strain USA300; test: Murine skin infection model, subcutaneous MRSA infection, topical treatment; format: in vivo; details: mice, twice daily for four days; for bacterial counts from skin lesions compared with PJ group / appearance of skin lesions (visual comparison): 2% topical; for bacterial counts from skin lesions compared with PJ group: *p≤0.05; for appearance of skin lesions (visual comparison): vs petroleum jelly vehicle
Procedure: The effectiveness of certain compounds, according to the present invention, was assessed using a murine skin infection model, conducted as previously described (Tseng, C. W. et. al. Subcutaneous infection of methicillin resistant Staphylococcus aureus (MRSA), J. Vis. Exp., (2011) 2528). The effect of example compound of formula 75 was assessed against skin infection caused by methicillin-resistant Staphylococcus aureus (MRSA), the main causative agent of diabetic foot ulcer. Within 72 hours post-subcutaneous infection with MRSA strain USA300, the backs of the mice started showing evident lesions. At this point, treatment regimen started for the three groups of mice, for four days, twice daily, with petroleum jelly (PJ) or petroleum jelly with 2% example compound of formula 75 or 2% fusidic acid ointment (FA). […] The mice with plain vehicle (PJ) applied throughout the experiment had ulcerated lesions and visible skin damage with demarcated red prominent edges, as shown in FIG. 2A.

[5] = broth microdilution, CAMHB, 37° C., 18-20 hours
[6] = AB5075, broth microdilution, CAMHB, 37° C., 18-20 hours, read-out: A. baumannii AB5075 MIC
[7] = comparison of MIC values of Table 1
[8] = end of the experiment (fourteen passages)

Compound	MIC [1, 5]	MIC [2, 6]	also measured
C/C(=N\NC(=N)N)c1ccc(SC2CCCCC2)cc1 [Example compound of formula 80]	4 µg/mL	8 µg/mL	
CN[C@H](CC(C)C)C(=O)N[C@H]1C(=O)N[C@@H](CC(N)=O)C(=O)N[C@H]2C(=O)N[C@H]3C(=O)N[C@H](C(=O)N[C@H](C(=O)O)c4cc(O)cc(O)c4-c4cc3ccc4O)[C@H](O)c3ccc(c(Cl)c3)Oc3cc2cc(c3O[C@@H]2O[C@H](CO)[C@@H](O)[C@H](O)[C@H]2O[C@H]2C[C@](C)(N)[C@H](O)[C@H](C)O2)Oc2ccc(cc2Cl)[C@H]1O [Vancomycin, reference compound]			MIC [1]: 1 µg/mL (≈ 0.69 µM); MIC ([2]; AB5075, read-out: A. baumannii AB5075 MIC): > 128 µg/mL
CCCCCCSc1ccc(/C(C)=N/NC(=N)N)cc1 [Example compound of formula 74, 2-(1-(4-(Hexylthio)phenyl)ethylidene)hydrazine-1-carboximidamide]	0.5 µg/mL	4 µg/mL	potency against S. aureus USA300 relative to example compound of formula 75 [1, 7]: maintained the same potency; potency against tested gram-negative pathogen (A. baumannii AB5075) relative to example compound of formula 75 [2, 7]: four times less potent
CO[C@H]1/C=C/O[C@@]2(C)Oc3c(C)c(O)c4c(O)c(c(/C=N/N5CCN(C)CC5)c(O)c4c3C2=O)NC(=O)/C(C)=C\C=C\[C@H](C)[C@H](O)[C@@H](C)[C@@H](O)[C@@H](C)[C@H](OC(C)=O)[C@@H]1C [rifampicin, reference compound]			increase in MIC against MRSA USA300 ([3]; eighth passage): 7 fold; increase in MIC against MRSA USA300 [3, 8]: 13 fold
Gentamycin [reference compound]			A. baumannii AB5075 MIC [2, 5]: 1 µg/mL
CCCSc1ccc(/C(C)=N/NC(=N)N)cc1 [Example compound of formula 68]			MRSA USA300 MIC [1, 5]: No inhibition; A. baumannii AB5075 MIC [2, 5]: No inhibition
C/C(=N\NC(=N)N)c1ccc(SCC2CCCCC2)cc1 [Example compound of formula 82]			MRSA USA300 MIC [1, 5]: No inhibition; A. baumannii AB5075 MIC [2, 5]: No inhibition
CCCCCCCCSc1ccc(/C(C)=N/NC(=N)N)cc1 [Example compound of formula 72]	1 µg/mL	8 µg/mL	
CCCCCCCSc1ccc(/C(C)=N/NC(=N)N)cc1 [Example compound of formula 75, 2-(1-(4-(Heptylthio)phenyl)ethylidene)hydrazine-1-carboximidamide]	0.5 µg/mL	1 µg/mL	decrease in bacterial loads recovered from skin lesions ([4]; 2% in petroleum jelly, topical): ~1 log cycle; reduction in bacterial loads recovered from skin lesions ([4]; 2% in petroleum jelly, topical): 90%; bacterial counts from skin lesions compared with PJ group [4]: significantly lower than the counts obtained from the PJ group; appearance of skin lesions (visual comparison) [4]: showed signs of lesion healing and better recovery; increase in MIC against MRSA USA300 ([3]; eighth passage): 2 fold; increase in MIC against MRSA USA300 [3, 8]: remained stable till the end of the experiment; increase in MIC against MRSA USA300 ([3]; on the fifth passage): one-fold
C=CCCSc1ccc(/C(C)=N/NC(=N)N)cc1 [Example compound of formula 70]	32 µg/mL	32 µg/mL	
CCC(CC)CSc1ccc(/C(C)=N/NC(=N)N)cc1 [Example compound of formula 78]			MRSA USA300 MIC [1, 5]: No inhibition; A. baumannii AB5075 MIC [2, 5]: No inhibition
C/C(=N\NC(=N)N)c1ccc(SC2CCCC2)cc1 [Example compound of formula 79]	8 µg/mL	16 µg/mL	
CC(=O)O[C@H]1C[C@@]2(C)[C@@H](C[C@@H](O)[C@H]3[C@@]4(C)CC[C@@H](O)[C@@H](C)[C@@H]4CC[C@@]32C)/C1=C(\CCC=C(C)C)C(=O)O [fusidic acid, reference compound]			bacterial counts from skin lesions compared with PJ group [4]: significantly lower than the counts obtained from the PJ group; appearance of skin lesions (visual comparison) [4]: showed signs of lesion healing and better recovery
CCCCSc1ccc(/C(C)=N/NC(=N)N)cc1 [Example compound of formula 69]	8 µg/mL	16 µg/mL	
C/C(=N\NC(=N)N)c1ccc(SCCC(C)C)cc1 [Example compound of formula 77]	4 µg/mL	8 µg/mL	
C/C(=N\NC(=N)N)c1ccc(SCC2CCC2)cc1 [Example compound of formula 81]	8 µg/mL	16 µg/mL	
C/C(=N\NC(=N)N)c1ccc(SCCc2ccccc2)cc1 [Example compound of formula 84]	2 µg/mL	8 µg/mL	
C/C(=N\NC(=N)N)c1ccc(SCc2ccccc2)cc1 [Example compound of formula 83]	4 µg/mL	16 µg/mL	
CCCCCCCCCSc1ccc(/C(C)=N/NC(=N)N)cc1 [Example compound of formula 73]	2 µg/mL	16 µg/mL	
C/C(=N\NC(=N)N)c1ccc(SCC(C)C)cc1 [Example compound of formula 76]	8 µg/mL	16 µg/mL	
CCCCCSc1ccc(/C(C)=N/NC(=N)N)cc1 [Example compound of formula 71]	8 µg/mL	16 µg/mL	
